Measurements: US9913843B2, “Protein kinase C inhibitors and uses thereof” (Rigel Pharmaceuticals, Inc., priority 2012, dated 2018)
Read-outs that look alike come from different tables or passages of the source.

System: PKC mediated IL-2 production in human primary T cells
Test: IL-2 ELISA, human primary T cell, anti CD3+CD28+ (whole cell functional assay for PKC mediated IL-2 production)
Format: cell-based
Procedure, shortened: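 IL-2 in supernatants was quantified by ELISA after 24 h at 37 °C. Before stimulation with plate-coated anti-CD3 (1 μg/ml) and anti-CD28 (5 μg/ml), T cells expanded from PBMC were exposed to compound for 1 h; the counter-screen replaced antibodies with PMA 0.5 ng/ml and ionomycin 0.1 μM (final).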

[1] = 24 h, human primary T cells stimulated with anti-CD3 + anti-CD28, IL-2 by ELISA, read-out: IC50 for blocking IL-2 production
[2] = human primary T cells stimulated with anti-CD3 + anti-CD28, 24 h, IL-2 by ELISA, 8 pt, read-out: IL2 ELISA, Human primary T cell, anti-CD3 + CD28, 8 pt (IC50)

SMILES | IC50 [1] | IC50 [2]
N#Cc1cccc(Nc2ncc(F)c(NC[C@@H]3CCCN4CCCC[C@H]34)n2)c1 [Compound 10, 3-(4-(((1S,9aR)-octahydro-1H-quinolizin-1-yl)methylamino)-5-fluoropyrimidin-2-ylamino)benzonitrile] | < 30 µM | 0.594 µM
[2H]C([2H])(O)C([2H])([2H])Oc1cc(F)c(Nc2ncc(C#N)c(NC[C@@H]3CCCN4CCCC[C@H]34)n2)cc1-n1nnn(C)c1=O [Compound 137, 2-((2-fluoro-4-(2-hydroxyethoxy-1,1,2,2-d4)-5-(4-methyl-5-oxo-4,5-dihydro-1H-tetrazol-1-yl)phenyl)amino)-4-((((1S,9aR)-octahydro-2H-quinolizin-1-yl)methyl)amino)pyrimidine-5-carbonitrile] | < 30 µM | 
CC(O)COc1ccc(Nc2ncc(F)c(NC[C@@H]3CCCN4CCCC[C@H]34)n2)cc1C#N (stereo partly drawn) [Compound 145, 5-((5-fluoro-4-((((1S,9aR)-octahydro-2H-quinolizin-1-yl)methyl)amino)pyrimidin-2-yl)amino)-2-(2-hydroxypropoxy)benzonitrile] | < 30 µM | 4.63 µM
COc1cc(Nc2ncc(C(F)(F)F)c(NC[C@@H]3CCCN4CCCC[C@H]34)n2)cc(OC)c1 [Compound 111, 5-(trifluoromethyl)-N4-(((1S,9aR)-octahydro-1H-quinolizin-1-yl)methyl)-N2-(3,5-dimethoxyphenyl)pyrimidine-2,4-diamine] | < 30 µM | 12.5 µM
Cn1nnn(-c2cc(Nc3ncc(C#N)c(NC[C@@H]4CCCN5CCCC[C@H]45)n3)c(F)cc2O)c1=O [Compound 128, 2-((2-fluoro-4-hydroxy-5-(4-methyl-5-oxo-4,5-dihydro-1H-tetrazol-1-yl)phenyl)amino)-4-((((1S,9aR)-octahydro-2H-quinolizin-1-yl)methyl)amino)pyrimidine-5-carbonitrile] | < 30 µM | 1.94 µM
Cc1ccc(Nc2ncc(Cl)c(NC[C@@H]3CCCN4CCCC[C@H]34)n2)cc1-n1cnnn1 [Compound 33, 5-chloro-N4-(((1S,9aR)-octahydro-1H-quinolizin-1-yl)methyl)-N2-(4-methyl-3-(1H-tetrazol-1-yl)phenyl)pyrimidine-2,4-diamine] | < 30 µM | 0.117 µM
Cn1nnn(-c2cc(Nc3ncc(F)c(NC[C@@H]4CCCN5CCCC[C@H]45)n3)ccc2OC2COC2)c1=O [Compound 14, 1-(5-(4-(((1S,9aR)-octahydro-1H-quinolizin-1-yl)methylamino)-5-fluoropyrimidin-2-ylamino)-2-(oxetan-3-yloxy)phenyl)-4-methyl-1H-tetrazol-5(4H)-one] | < 30 µM | 0.201 µM
COc1cc(Nc2ncc(OC)c(NC[C@@H]3CCCN4CCCC[C@H]34)n2)cc(OC)c1 [Compound 83, N4-(((1S,9aR)-octahydro-1H-quinolizin-1-yl)methyl)-5-methoxy-N2-(3,5-dimethoxyphenyl)pyrimidine-2,4-diamine] | < 30 µM | 3.87 µM
Fc1cc(C2CC2)c(-n2cnnn2)cc1Nc1ncc(Cl)c(NC[C@@H]2CCCN3CCCC[C@H]23)n1 [Compound 32, 5-chloro-N2-(4-cyclopropyl-2-fluoro-5-(1H-tetrazol-1-yl)phenyl)-N4-(((1S,9aR)-octahydro-1H-quinolizin-1-yl)methyl)pyrimidine-2,4-diamine] | < 30 µM | 0.159 µM
N#Cc1cc(Nc2ncc(C#N)c(NC[C@@H]3CCCN4CCCC[C@H]34)n2)ccc1C1CC1 [Compound 120, 4-(((1S,9aR)-octahydro-1H-quinolizin-1-yl)methylamino)-2-(3-cyano-4-cyclopropylphenylamino)pyrimidine-5-carbonitrile] | < 30 µM | 0.0093 µM
Fc1ccc(S(F)(F)(F)(F)F)cc1Nc1ncc(F)c(NC[C@@H]2CCCN3CCCC[C@H]23)n1 [Compound 29, 5-fluoro-N2-(3-pentafluorosulfanyl-6-fluoro-phenyl)-N4-(((1S,9aR)-octahydro-1H-quinolizin-1-yl)methyl)pyrimidine-2,4-diamine] | < 30 µM | 1.8 µM
Cc1nnnn1-c1cc(Nc2ncc(C(F)(F)F)c(NC[C@@H]3CCCN4CCCC[C@H]34)n2)ccc1F [Compound 103, N2-(4-fluoro-3-(5-methyl-1H-tetrazol-1-yl)phenyl)-5-(trifluoromethyl)-N4-(((1S,9aR)-octahydro-1H-quinolizin-1-yl)methyl)pyrimidine-2,4-diamine] | < 30 µM | 26.6 µM
CC1(C)Oc2cc(Nc3ncc(F)c(NC[C@@H]4CCCN5CCCC[C@H]45)n3)ccc2N(CC2CC2)C1=O [Compound 18, 7-(4-(((1S,9aR)-octahydro-1H-quinolizin-1-yl)methylamino)-5-fluoropyrimidin-2-ylamino)-4-(cyclopropylmethyl)-2,2-dimethyl-2H-benzo[b][1,4]oxazin-3(4H)-one] | < 30 µM | 0.127 µM
Cc1nnnn1-c1ccc(F)c(Nc2ncc(F)c(NC[C@@H]3CCCN4CCCC[C@H]34)n2)c1 [Compound 7, 5-fluoro-N2-(2-fluoro-5-(5-methyl-1H-tetrazol-1-yl)phenyl)-N4-(((1S,9aR)-octahydro-1H-quinolizin-1-yl)methyl)pyrimidine-2,4-diamine] | < 30 µM | 0.428 µM
COCCOc1cc(F)c(Nc2ncc(C#N)c(NC[C@@H]3CCCN4CCCC[C@H]34)n2)cc1-n1nnn(C)c1=O [Compound 129, 2-((2-fluoro-4-(2-methoxyethoxy)-5-(4-methyl-5-oxo-4,5-dihydro-1H-tetrazol-1-yl)phenyl)amino)-4-((((1S,9aR)-octahydro-2H-quinolizin-1-yl)methyl)amino)pyrimidine-5-carbonitrile] | < 30 µM | 1.34 µM
Cc1nnnn1-c1cc(Nc2ncc(F)c(NC[C@@H]3CCCN4CCCC[C@H]34)n2)ccc1F [Compound 8, 5-fluoro-N2-(4-fluoro-3-(5-methyl-1H-tetrazol-1-yl)phenyl)-N4-(((1S,9aR)-octahydro-1H-quinolizin-1-yl)methyl)pyrimidine-2,4-diamine] | < 30 µM | 0.106 µM
COc1cc(Nc2ncc(Cl)c(NC[C@@H]3CCCN4CCCC[C@H]34)n2)cc(-n2nnnc2C)c1 [Compound 38, 5-chloro-N4-(((1S,9aR)-octahydro-1H-quinolizin-1-yl)methyl)-N2-(3-methoxy-5-(5-methyl-1H-tetrazol-1-yl)phenyl)pyrimidine-2,4-diamine] | < 30 µM | 0.126 µM
Cc1ccc(Nc2ncc(N(C)C)c(NC[C@@H]3CCCN4CCCC[C@H]34)n2)cc1C#N [Compound 93, 5-(4-(((1S,9aR)-octahydro-1H-quinolizin-1-yl)methylamino)-5-(dimethylamino)pyrimidin-2-ylamino)-2-methylbenzonitrile] | < 30 µM | 3.92 µM
Cc1cnc(Nc2ccc3oc(=O)[nH]c3c2)nc1NC[C@@H]1CCCN2CCCC[C@H]12 [Compound 71, 5-(4-(((1S,9aR)-octahydro-1H-quinolizin-1-yl)methylamino)-5-methylpyrimidin-2-ylamino)benzo[d]oxazol-2(3H)-one] | < 30 µM | 3.75 µM
CN(C)c1cnc(Nc2cc(-n3nnn(C)c3=O)c(C3CC3)cc2F)nc1NC[C@@H]1CCCN2CCCC[C@H]12 [Compound 87] | < 30 µM | 8.26 µM
Cc1ccc(Nc2ncc(C)c(NC[C@@H]3CCCN4CCCC[C@H]34)n2)cc1C#N [Compound 67, 5-(4-(((1S,9aR)-octahydro-1H-quinolizin-1-yl)methylamino)-5-methylpyrimidin-2-ylamino)-2-methylbenzonitrile] | < 30 µM | 1.08 µM
Cn1nnn(-c2cc(Nc3ncc(C#N)c(NC[C@@H]4CCCN5CCCC[C@H]45)n3)c(F)cc2OC(C)(C)CO)c1=O [Compound 151, 2-((2-fluoro-4-((1-hydroxy-2-methylpropan-2-yl)oxy)-5-(4-methyl-5-oxo-4,5-dihydro-1H-tetrazol-1-yl)phenyl)amino)-4-((((1S,9aR)-octahydro-2H-quinolizin-1-yl)methyl)amino)pyrimidine-5-carbonitrile] | < 30 µM | 0.305 µM
COc1cc(Nc2ncc(C)c(NC[C@@H]3CCCN4CCCC[C@H]34)n2)cc(-n2nnnc2C)c1 [Compound 65, N4-(((1S,9aR)-octahydro-1H-quinolizin-1-yl)methyl)-N2-(3-methoxy-5-(5-methyl-1H-tetrazol-1-yl)phenyl)-5-methylpyrimidine-2,4-diamine] | < 30 µM | 0.0728 µM
C[C@@H](O)COc1cc(F)c(Nc2ncc(C#N)c(NC[C@@H]3CCCN4CCCC[C@H]34)n2)cc1-n1nnn(C)c1=O [Compound 143, 2-((2-fluoro-4-((R)-2-hydroxypropoxy)-5-(4-methyl-5-oxo-4,5-dihydro-1H-tetrazol-1-yl)phenyl)amino)-4-((((1S,9aR)-octahydro-2H-quinolizin-1-yl)methyl)amino)pyrimidine-5-carbonitrile] | < 30 µM | 0.147 µM
N#Cc1cc(Nc2ncc(Cl)c(NC[C@@H]3CCCN4CCCC[C@H]34)n2)ccc1C1CC1 [Compound 41, 5-(4-(((1S,9aR)-octahydro-1H-quinolizin-1-yl)methylamino)-5-chloropyrimidin-2-ylamino)-2-cyclopropylbenzonitrile] | < 30 µM | 0.0723 µM
COc1ccc(Nc2ncc(C(N)=O)c(NC[C@@H]3CCCN4CCCC[C@H]34)n2)cc1-n1nnnc1C [Compound 125, 4-(((1S,9aR)-octahydro-1H-quinolizin-1-yl)methylamino)-2-(4-methoxy-3-(5-methyl-1H-tetrazol-1-yl)phenylamino)pyrimidine-5-carboxamide] | < 30 µM | 1.78 µM
